# Measurements reported in patent US9139502B2, “Use of an urushiol compound in preparation of pharmaceutical compositions for inhibiting Smad3 phosphorylation” (Southern Hospital, Southern Medical University, priority 2013, dated 2015).
# Key:
# NRK52E cells = assay: MTT cell viability test; assay type: cell-based, rat; settings: GQ-5 0.25-4 μM, 1 h
# Experimental: To test the toxicity of GQ-5, rat proximal tubular cells (NRK52E) were seeded into 96-well plates in a volume of 200 μl per well (1×10^5 cell/ml) and incubated for 24 hours to allow cells to attach. The cells were then incubated with indicated amount of GQ-5 for 1 h. Cell viability was determined by addition of 20 μl of 3-(4,5-dimethylthiazol-2-yl)-2, 5-diphenyltetrazolium bromide (MTT) at a concentration of 5 mg/ml. After incubation for 4 hours, the medium was removed and 150 μl of DMSO was added to dissolve the formazan crystals. The absorbance was read at 540 nm by using iMark™Microplate Reader (Bio-Rad).
# [1] = target: interaction of Smad2 with TβRI (Rattus norvegicus, UniProt O70436); assay: Immunoprecipitation of Smad2 with TβRI in vitro; assay type: cell-based; parameters: endogenous in cells; host or cells: NRK52E; settings: NRK52E cells, GQ-5 2.5 nM pre-treated 1 h, TGF-β1 10 ng/ml 1 h
# interaction of Smad2 with TβRI, sequence (O70436 whole entry): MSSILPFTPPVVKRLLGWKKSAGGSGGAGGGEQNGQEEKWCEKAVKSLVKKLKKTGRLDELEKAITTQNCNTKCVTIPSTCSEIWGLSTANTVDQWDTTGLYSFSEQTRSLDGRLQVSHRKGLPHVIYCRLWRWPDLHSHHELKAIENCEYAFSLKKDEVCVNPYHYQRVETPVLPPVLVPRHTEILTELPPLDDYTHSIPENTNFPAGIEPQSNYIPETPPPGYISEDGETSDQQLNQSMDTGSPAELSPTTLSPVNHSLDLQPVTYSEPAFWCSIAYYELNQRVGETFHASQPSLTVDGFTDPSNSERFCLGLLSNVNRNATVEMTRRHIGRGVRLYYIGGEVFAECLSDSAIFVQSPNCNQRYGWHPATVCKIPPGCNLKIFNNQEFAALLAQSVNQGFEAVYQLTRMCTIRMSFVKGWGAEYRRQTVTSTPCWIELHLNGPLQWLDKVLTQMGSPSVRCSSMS
# Experimental: (§1) NRK52E cells were cultured in DMEM-Ham's medium supplemented with 10% fetal bovine serum. The cells reached at approximately 50% confluence were used for in vitro experiments. Cells were serum-starved for 12 h, and randomized into 4 groups: (1) Controls; (2) GQ-5 only; (3) TGF-β1 only; (4) TGF-β1+GQ-5
# (2) GQ-5 only: pre-treated with GQ-5 (2.5 nM) for 1 h, followed with DMEM for 1 h
# (3) TGF-β1 only: pre-treated with DMSO for 1 h, followed with TGF-β1 (10 ng/ml) for 1 h
# (4) TGF-β1+GQ-5: pre-treated with GQ-5 (2.5 nM) for 1 h, followed with TGF-β1 (10 ng/ml) for 1 h
# GQ-5 was dissolved in DMSO. Cells were treated as described. Cell lysates were collected for immunoprecipitation to examine the interaction among TGFβ type I receptor (TβRI), TβRII, Smad3 and Smad2.
# Smad4 = assay: Immunofluorescence staining of Smad4 nuclear translocation; assay type: cell-based, rat; settings: NRK52E cells, GQ-5 2.5 μM pre-treated 1 h, TGF-β1 10 ng/ml 2 h
# Experimental: NRK52E cells were cultured in DMEM-Ham's medium supplemented with 10% fetal bovine serum. The cells reached at approximately 50% confluence were used for in vitro experiments. Cells were serum-starved for 12 h, and randomized into 3 groups: (1) Controls; (2) TGF-β1 only; (3) TGF-β1+GQ-5.
# (2) TGF-β1 only: pre-treated with DMSO for 1 h, followed with TGF-β1 (10 ng/ml) for 2 h
# (3) TGF-β1+GQ-5: pre-treated with GQ-5 (2.5 μM) for 1 h, followed with TGF-β1 (10 ng/ml) for 2 h
# GQ-5 was dissolved in DMSO. Cells were treated as described Immunofluorescence staining was performed to examine the nuclear translocation of Smad2, Smad3, and Smad4.
# PI3K = assay: Western blot of PI3K phosphorylation in UUO kidneys; assay type: in vivo, rat; settings: UUO rats, GQ-5 40 mg/kg daily i.p. right after UUO, sacrificed day 14
# Experimental: Male Sprague-Dawley rats with body weight 200 to 250 g were randomized into 3 groups (n=6 in each group): (1) sham operated rats; (2) UUO rats; (3) UUO+GQ-5 rats.
# GQ-5 was dissolved in 5% propylene glycol.
# (3) UUO+GQ-5 rats: daily intraperitoneal injection of GQ-5 (40 mg/kg body weight) right after UUO;
# UUO was performed using an established protocol as described. GQ-5 was dissolved in 5% propylene glycol. Rats were administrated with GQ-5 as described before. All the rats were sacrificed 14 days after UUO. Western blot analyses were performed to examine the Smad4, Smad7 expression and p38, PI3K, ERK phosphorylation.
# Smad2 phosphorylation = assay: Western blot of TGF-β1-induced Smad2 phosphorylation in vitro; assay type: cell-based, rat
# Experimental: as §1, with “NRK52E and NRK49F” for “NRK52E”, “into 6” for “into 4”, “TGF-β1+GQ-5 0.1 μM; (5) TGF-β1+GQ-5 0.5 μM; (6) TGF-β1+GQ-5 2.5 μM.” for “TGF-β1+GQ-5”
# (2) GQ-5 only: pre-treated with GQ-5 (2.5 μM) for 1 h, followed with DMEM for 1 h
# (3) TGF-β1 only: pre-treated with DMSO (0.1%) for 1 h, followed with TGF-β1 (10 ng/ml) for 1 h
# (4) TGF-β1+GQ-5 0.1 μM: pre-treated with GQ-5 (0.1 μM) for 1 h, followed with TGF-β1 (10 ng/ml) for 1 h
# (5) TGF-β1+GQ-5 0.5 μM: pre-treated with GQ-5 (0.5 μM) for 1 h, followed with TGF-β1 (10 ng/ml) for 1 h
# (6) TGF-β1+GQ-5 2.5 μM: pre-treated with GQ-5 (2.5 μM) for 1 h, followed with TGF-β1 (10 ng/ml) for 1 h.
# GQ-5 was dissolved in DMSO. Cells were treated as described. Cell lysates were immunoblotted with antibodies against phospho-Smad3, Smad3, phospho-Smad2, Smad2.
# as §1, with “into 8” for “into 4”, “TGF-β1 0.5 h;” for “TGF-β1 only;”, “(4) TGF-β1 0.5 h+GQ-5; (5) TGF-β1 1.0 h; (6) TGF-β1 1.0 h+GQ-5; (7) TGF-β1 3.0 h; (8) TGF-β1 3.0 h+GQ-5; […]” for “(4) TGF-β1+GQ-5”
smiles,measurement,setting,value
"CCCCCC/C=C\CCCCCCCc1cccc(O)c1O [GQ-5, 3-[(Z)-pentadec-8-enyl]catechol]",viability and proliferation of the cells (MTT),NRK52E cells,did not affect
same,interaction of Smad2 with TβRI,[1],did not affect
same,nuclear translocation of Smad4,Smad4,also reduced
same,phosphorylation of PI3K,PI3K,did not affect
same,TGF-β1-induced Smad2 phosphorylation,"Smad2 phosphorylation; NRK52E and NRK49F cells, GQ-5 0.1, 0.5, 2.5 μM pre-treated 1 h, TGF-β1 10 ng/ml 1 h",did not affect
same,"TGF-β1-induced Smad2 phosphorylation, time course","Smad2 phosphorylation; NRK52E cells, GQ-5 2.5 μM pre-treated 1 h, TGF-β1 10 ng/ml 0.5, 1.0, 3.0 h",did not affect
